Measured values as given in patent US12102104B2, “Carbonation sensation enhancing agent for foods and beverages having carbonate stimulation” (Ogawa & Co., Ltd., priority 2018, dated 2024).

Experiments:
expert panelists [1] = assay: Test Example 2: sensory comparison of polygodial with known carbonation sensation enhancing agents; assay type: in vivo, human
Experimental: Sensory evaluation of the samples of Example 4 and Comparative Examples 3 to 11 was performed by 10 expert panelists based on the following Evaluation criteria 1 to 3 using the carbonated water for evaluation of Preparation Example 1 as a control.
[Evaluation Criteria 1] (Strength of Carbonate Stimulation)
(Mode of Generation of Carbonate Stimulation)
Mode of generation of carbonate stimulation was defined as follows and the timing when the highest effect was felt was selected. The timing that won a majority (6 panelists or more) was regarded as the mode of generation of carbonate stimulation of the substance. In the case of a tie (5 panelists for each), the result was referred to as middle.
Initial: stimulation felt immediately after the sample was put in one's mouth. The impact at the moment when one took the sample.
Last: stimulation felt after swallowing the sample. Aftertaste and feeling when going down. Delayed effect.
[Evaluation Criteria 3] (Characteristics of Flavor)
Majority opinions were obtained from panelists' free descriptions of characteristics of flavor they felt.

[2] = Decomposition of polygodial on distillation; assay type: physicochemical; settings: yield significantly reduced
Description: Thus, distillation needs to be performed under reduced pressure using a known vacuum pump such as oil rotary pump, a mechanical booster pump and a diffusion pump.

expert panelists [3] = assay: Test Example 1: sensory evaluation of carbonated water with polygodial; assay type: in vivo, human
Experimental: Carbonated water for evaluation was prepared by diluting commercially available carbonated water (pressure of carbon dioxide gas before opening 3.0 kg/cm^2) with water such that the pressure of carbon dioxide gas was 1.3 kg/cm^2.
Polygodial (manufactured by Wako Pure Chemical Industries, Ltd.) was added to the carbonated water for evaluation of Preparation Example 1 such that the concentration was as shown in Table 1 described later and this was referred to as Comparative Examples 1 and 2, and Examples 1 to 6.
20 ppm of the Persicaria hydropiper extract of Production Example 1 was added to the carbonated water for evaluation of Preparation Example 1 and this was referred to as Example 7.
0.05 ppm of Tasmannia lanceolata oil (manufactured by ESSENTIAL OILS OF TASMANIA PTY LTD, polygodial content 20%) was added to the carbonated water for evaluation of Preparation Example 1 and this was referred to as Example 8. […]
Sensory evaluation was performed by 10 expert panelists based on the following Evaluation criteria using a product to which polygodial was not added as a control. For the strength of an offensive taste and odor, the average of the score of the 10 panelists was calculated and determined as the result of evaluation. […]

expert panelists [4] = assay: Test Example 3: equivalent carbon dioxide gas pressure by paired comparison; assay type: in vivo, human; settings: base 1.3 kg/cm^2, polygodial 10 ppb (Example 7)
Description: The strength of carbonate stimulation of the carbonated water of Example 7 prepared by adding the Persicaria hydropiper extract of Production Example 1 to the carbonated water for evaluation of Preparation Example 1 (1.3 kg/cm^2) and the strength of carbonate stimulation of the carbonated waters described in Table 3 (1.4 kg/cm^2, 1.6 kg/cm^2, 1.9 kg/cm^2) separately prepared as a control were compared by 18 to 20 expert panelists. The number of panelists who judged that the carbonated water of Example 7 had strong carbonation and the selectivity of the carbonated water of Example 7 are shown in Table 3.
Furthermore, the relation between the concentration of carbon dioxide gas in the control product and the selectivity of the carbonated water of Example 7 was plotted (see FIG. 1).
Thus, it is considered that addition of polygodial has the same effect as increasing the pressure of carbon dioxide gas by 0.3 kg/cm^2.

Compound | Timing of the effect of enhancing carbonation sensation (expert panelists [1]) | Evaporating temperature at which polygodial is decomposed [2] | Enhancement of carbonation sensation (expert panelists [3]; polygodial 0.01 ppb) | Enhancement of carbonation sensation and pungency (expert panelists [3]; polygodial 400 ppb) | Increase of pressure of carbon dioxide gas having the same effect as addition (expert panelists [4]) [kg/cm^2]
C/C=C/C=C\CC/C=C/C(=O)NCC(C)C [spilanthol, (2E,6Z,8E)-N-Isobutyl-2,6,8-decatrienamide, reference compound] | relatively delayed |  |  |  | 
CC1(C)CCC[C@]2(C)[C@@H](C=O)C(C=O)=CC[C@@H]12 [polygodial, (1R,4aS,8aS)-5,5,8a-trimethyl-1,4,4a,6,7,8-hexahydronaphthalene-1,2-dicarboxaldehyde] | immediate effect | more than 150 °C | not enhanced | pungency appeared with enhanced carbonation sensation | 0.3
